Key:
[1] = test system: 9L gliosarcoma tumors (9L glioma); assay: 9L glioma flank study; type: in vivo, Fisher 344 rats; conditions: Day 25 or 26 after implantation; treatment from Day 5 per Table 4
Experimental: Four groups of rats (twenty total Fisher 344 rats, 200 g) were given s.q. transplants of 1 mm3 9L gliosarcoma tumors (9L glioma) on Day 0. The tumors were implanted in the rat flanks to avoid complications relating to adequate brain levels of squalamine. Randomization and treatment began on Day 5 according to the following scheme:
On Day 25 or 26 after tumor implantation, the tumor size was measured directly. The tumor size (i.e., its volume “V”) was estimated based on volumetric calculations determined from the measured length (“L”), width (“W”), and height (“H”) of the tumor (Vtumor spheroid˜0.5 ×L×W×H). The tumor volumes shown in Table 5 represent the mean tumor volumes for each treatment group for those animals that survived to the end of the experiment.

[2] = test system: H460; assay: H460 lung tumor xenograft with carboplatin; type: in vivo, nude BALBc mice
Experimental: (§1) About 5×10^6 cells from each of two human lung tumor lines, H460 (a rapidly proliferating large cell carcinoma cell line, ATCC HTB-177) and Calu-6 (an anaplastic carcinoma, ATCC HTB-56), were inoculated subcutaneously in the right foreleg of nude BALBc mice. Once tumors were visible (3-5 days) with a mean volume of approximately 50-80 mm^3, mice were treated intraperitoneally with 60 mg/kg carboplatin (single dose) or 20 mg/kg/squalamine (once daily for 5 days) or a combination of carboplatin and squalamine. There were 8 mice per group. Tumor growth inhibition was scored by quantifying the size of tumors once control tumors reached a size of 1.0 gram and determining the ratio of mean treated tumor size to mean control tumor size (T/C). Tumor growth inhibition was then scored as 100% x [1-(T/C)]. A separate antitumor activity variable, tumor growth delay, was scored for the tumors by determining the length of time it required for the mean tumor size in a treatment group to reach a size of 500 mm^3 (B. A. Teicher et al., Anticancer Research 18, 2567-2574 (1998)). The tumor growth inhibition seen with carboplatin plus squalamine was greater than that seen with carboplatin or squalamine alone. The relative inactivity of squalamine as a single agent by this assay endpoint supports the idea that squalamine is synergistic with carboplatin in the inhibition of these two human lung tumor xenografts. Similarly, it was determined that squalamine enhanced the tumor growth delay caused by carboplatin by an enhancement factor of >2.3 (Table 7).

[3] = test system: Calu-6; assay: Calu-6 lung tumor xenograft with carboplatin; type: in vivo, nude BALBc mice
Experimental: as §1

[4] = test system: murine Lewis lung adenocarcinoma; assay: Lung metastases of subcutaneous Lewis lung carcinoma; type: in vivo, C57BL/6 mice; conditions: day 20; squalamine 20 mg/kg/day s.c.; cyclophosphamide 125 mg/kg i.p. days 7, 9, 11; cisplatin 10 mg/kg i.p. day 7
Experimental: The murine Lewis lung adenocarcinoma was implanted subcutaneously in the hind-leg of male C57BL/6 mice and allowed to grow for one week. Groups of mice were then left untreated or treated with either squalamine (20 mg/kg/day, s.c.), cyclophosphamide (125 mg/kg, i.p. on days 7, 9 and 11), cisplatin (10 mg/kg, i.p. on day 7), the combination of squalamine and cyclophosphamide, or the combination of squalamine and cisplatin. On day 20, the animals were sacrificed, and the mean number of lung metastases were determined for each group.

[5] = test system: parental 2008 cell line; assay: Human ovarian tumor 2008 xenograft with cisplatin; type: in vivo, female Swiss nude mice; conditions: cisplatin single dose 4 mg/kg, squalamine 2 mg/kg, days 1-10
Experimental: Human ovarian tumor cells were injected subcutaneously (5×10^7 cells per animal) in the mid-back region of female Swiss nude mice. The human ovarian tumors were either the parental 2008 cell line (cf. R. J. Pietras et al., Oncogene 9, 1829-1838 (1994)) or a transfected variant overexpressing the Her-2/neu receptor. The overexpression of the Her-2/neu receptor is considered to make the resulting xenograft tumors more angiogenic and less responsive to chemotherapy. After one week, animals were randomized to groups receiving no treatment (controls), a single dose of cisplatin (4 mg/kg), daily treatment with squalamine (2 mg/kg, days 1-10) or cisplatin plus squalamine. The growth of tumors was then scored on day 28 following initiation of chemotherapy. The results were very similar with the parental 2008 tumor and the transfected variant overexpressing the Her-2/neu receptor. […] In this xenograft model, the [day 28 mean treated tumor weight increase divided by the day 28 mean control tumor weight increase (T/C)] x 100% was subtracted from 100% to give the tumor growth inhibition (TGI) value for each group.

[6] = test system: NHE1, NHE2, NHE3; conditions: FIG. 4; cited from earlier work
[7] = test system: human MX-1 breast cancer line; type: in vivo; conditions: single 200 mg/kg dose on day 14
Experimental: These documents each are entirely incorporated herein by reference. Squalamine was examined as adjunctive therapy following a single 200 mg/kg dose of cyclophosphamide. The cyclophosphamide was injected on day 14 following implantation of the tumor, at a time when the tumors measured 65-125 μl. […] The animals were then randomized to three treatment arms (each n=27): vehicle dosing only (Intralipid); squalamine given 10 mg/kg/day in Intralipid; and squalamine given 20 mg/kg/day in Intralipid for five days a week. Animals whose tumors exceeded 2 grams at any time during the experiment were euthanized. The experiment was continued for 90 days after initiating squalamine treatment to ensure that only mice experiencing long-term cures were still alive.

[8] = test system: LNCaP cells; assay: LNCaP cell growth in vitro ([3H]-thymidine incorporation); type: cell-based, human; conditions: media containing serum
Experimental: The anti-proliferative effect of squalamine was evaluated in tissue culture by both crystal violet staining and [^3H]-thymidine incorporation, on the LNCaP/C4-2 human prostate cancer progression model. Developed by applicants' laboratory, this lineage-derived cell line recapitulates the progression of human neoplastic prostate disease from an androgen-dependent and minimally metastatic condition (LNCaP cells) to an androgen-independent (defined as being able to proliferate in castrate hosts) and highly aggressive state (C4-2 subline).
In vitro experiments were also conducted with the LNCAP cell line in which cell proliferation as judged by [3H]-thymidine uptake was determined. LNCaP cells were maintained as previously described (cf. J. T. Hsieh et al., Cancer Research 53, 2852-2857 (1993)). Cells were exposed to 20 ng/mL vascular endothelial growth factor (VEGF), 20 μg/mL squalamine or a combination of VEGF and squalamine. […] As a consequence, the mechanism underlying the effectiveness of squalamine treatment of the LNCaP tumor in vivo may under certain conditions also involve direct inhibition of tumor cell growth and/or induction of tumor cell death.

[9] = carboplatin 60 mg/kg i.p. single dose, squalamine 20 mg/kg once daily for 5 days
[10] = time for mean tumor size to reach 500 mm^3

With `O=NN(CCCl)C(=O)NCCCl` [BCNU, 1,3-Bis(2-chloroethyl)-1-nitrosourea, reference compound] the “% Reduction (based on control volume)” value [1] was 86.1% and the “Mean Tumor volume” value [1] was 2,547 mm^3.
In the case of `N.N.O=C([O-])C1(C(=O)[O-])CCC1.[Pt+2]` [Carboplatin, carboplatin], the “Tumor Growth Inhibition (T/C)” value [2, 9] is reported as 50%, the “Tumor Growth Delay” value [2, 10] is reported as 2.9 and the “Tumor Growth Inhibition (T/C)” value [3, 9] is reported as 23%. The “Tumor Growth Delay” value [3, 10] was 2.5.
With `N.N.[Cl][Pt][Cl]` [Cisplatin, cis-Diamminedichloroplatinum, reference compound] the “mean number of lung metastases” value [4] was “reduced the number of metastases”, the “Day 28 Mean Tumor Size” value [5] was 5108 mm^3 and the “Tumor Growth Inhibition (TGI) Index” value ([5]; day 28) was 18%.
In the case of `N=C(N)NC(=O)c1nc(Cl)c(N)nc1N` [amiloride], the NHE isoform selectivity [6] is listed as “specifically act against NHE1 over NHE2 or NHE3”.
In the case of `O=P1(N(CCCl)CCCl)NCCCO1` (centres unmarked) [cyclophosphamide, N,N-Bis-(2-chloroethyl)-N′-(3-hydroxypropyl)phosphordiamidic acid cyclic ester monohydrate, reference compound], the “mean number of lung metastases” value [4] is reported as “reduced the number of metastases” and the tumor regression [7] is reported as “partial regression in all animals and complete regression in a small fraction of the animals”.
In the case of VEGF, the “Percent of Control [3H]-Thymidine Uptake” value ([8]; 20 ng/mL VEGF and/or 20 μg/mL squalamine, 24 hours) is reported as 84% and the “effect on cell growth alone” value ([8]; 20 ng/mL VEGF or 20 μg/mL squalamine) is reported as “minimal effects on cell growth”.
